Earlier results, collected in patent US10532971B2, “4-hydroxybutyric acid analogs” (Concert Pharmaceuticals, Inc., priority 2009, dated 2020).
Structures can show the parent of a compound that is named as a salt.

What was measured:
[1] = in humans
[2] = clinical trials; dose-dependent adverse effects

Row | Structure (SMILES) | half life [1] [min] | rates of headache, nausea, and dizziness [2]
1 | O=C(O)CCCO [4-hydroxybutyric acid, 4-Hydroxybutyric acid] | 30 to 60 | –
2 | O=C(O)CCCO [sodium oxybate, sodium salt of 4-hydroxybutyric acid] | – | 17-22%
